Data published in patent publication US9427482B2, “Agents for clearing biomolecules from circulation” (KONINKLIJKE PHILIPS N.V., priority 2010, dated 2016).

How the values were obtained:
tumor = experiment: Dual isotope biodistribution, mice pretargeted with CC49-TCO 20 (Example 10); assay type: in vivo; details: two doses of 12; 3 h after ^177Lu-tetrazine 15
Method: Tumor-bearing mice (ca. 100 mm^3 tumor size; n=4) were injected with ^125I-CC49 functionalized with 7.5 TCO-20 groups (100 μg/mouse, ca. 0.2 MBq). Thirty and 48 hours post-mAb injection the mice received one dose of clearing agent (galactose-MSA-tetrazine, 160 μg/dose) followed 2 h later by ^177Lu-tetrazine 15 (10 eq. with respect to the mAb, ca. 0.5 MBq). Three hours post-tetrazine injection the mice were anesthetized and sacrificed by cervical dislocation, blood was withdrawn by heart puncture, organs and tissues of interest were harvested and blotted dry. All collected samples were weighed and added with 1 mL PBS. The sample radioactivity was measured in a gamma-counter with a dual-isotope protocol (10-80 keV window for ^125I and 155-380 keV window for ^177Lu) along with standards to determine the percent injected dose per gram tissue (% ID/g).

[1] = Organ residence times from mouse biodistribution data (MIRD)
Method: Radiation dosimetry estimates were calculated for a male human model (standard 73 Kg adult) and for a voxelized mouse model by using the mouse biodistribution data (Example 12, Tables 7 and 8) according to the MIRD methodology. Activity concentration in these organs were converted in percent injected dose (% ID) and decay corrected to the time of injection. The % ID for blood, muscle and bone were estimated from the % ID/g of tissue and assuming 6%, 42% and 11% of the body weight. Whenever possible the time activity curves were fitted by a two-phase exponential clearance function. The fitted function was then integrated analytically to yield the organ residence times (Table 9). […] The time activity curve of the tumor was fitted by a mono-exponential uptake function defined as F(t)=a0(1−exp(−a1t)).
For ^177Lu-DOTA-CC49 some radioactivity was collected in the mixture of urine and feces. […] For the pretargeted ^177Lu-tetrazine a total of 97.8% ID was excreted.

## O=C([O-])CN1CCN(CC(=O)[O-])CCN(CC(=O)NCCOCCOCCOCCOCCOCCOCCOCCOCCOCCOCCOCCNC(=O)CCCC(=O)Nc2ccc(-c3nnc(-c4ccccn4)nn3)nc2)CCN(CC(=O)[O-])CC1.[177Lu+3] [^177Lu-tetrazine]
tumor
  ^177Lu-tetrazine Blood: 0.03 ± 0.00 % ID/gram
  ^177Lu-tetrazine Bone: 0.08 ± 0.04 % ID/gram
  ^177Lu-tetrazine Brain: 0.01 ± 0.00 % ID/gram
  ^177Lu-tetrazine Heart: 0.05 ± 0.01 % ID/gram
  ^177Lu-tetrazine Kidney: 1.50 ± 0.24 % ID/gram
  ^177Lu-tetrazine Liver: 0.19 ± 0.02 % ID/gram
  ^177Lu-tetrazine Lung: 0.24 ± 0.02 % ID/gram
  ^177Lu-tetrazine Muscle: 0.03 ± 0.00 % ID/gram
  ^177Lu-tetrazine Spleen: 0.09 ± 0.01 % ID/gram
  ^177Lu-tetrazine Tumor: 9.25 ± 2.16 % ID/gram
  ^177Lu-tetrazine Tumor/organ Blood: 304 ± 80
  ^177Lu-tetrazine Tumor/organ Bone: 142 ± 59
  ^177Lu-tetrazine Tumor/organ Brain: 1674 ± 243
  ^177Lu-tetrazine Tumor/organ Heart: 187 ± 20
  ^177Lu-tetrazine Tumor/organ Kidney: 6 ± 2
  ^177Lu-tetrazine Tumor/organ Liver: 50 ± 10
  ^177Lu-tetrazine Tumor/organ Lung: 39 ± 8
  ^177Lu-tetrazine Tumor/organ Muscle: 328 ± 96
  ^177Lu-tetrazine Tumor/organ Spleen: 108 ± 22
[1]
  Residence time Bladder Wall: 0.009 h
  Residence time Blood: 0.067 h
  Residence time Bone: 0.239 h
  Residence time Brain: 0.001 h
  Residence time Heart Wall: 0.001 h
  Residence time Kidneys: 0.293 h
  Residence time Large Intestines: 0.23 h
  Residence time Liver: 0.302 h
  Residence time Lungs: 0.031 h
  Residence time Muscle: 0.19 h
  Residence time Ovaries: 0.0034 h
  Residence time Small Intestines: 0.082 h
  Residence time Spleen: 0.023 h
  Residence time Stomach: 0.032 h
  Residence time Tumor: 3.93 h
  Residence time Uterus: 0.026 h
  Residence time remainder of the body: 1 h
[1]; τmarrow=0.08 τblood
  Residence time Red Marrow: 0.0054 h
